These results are taken from patent publication US20150140123A1, “Protein expression analyses for identifying genotoxic compounds” (Merck Patent GmbH, priority 2012, published 2015).

Like-named read-outs stand apart in the source and are kept apart here.

The test system of this data set is HepG2 cells. The experiment in a line: High content imaging cytotoxicity parameters: selected cell count per valid field (SCC) and CMFDA cytoplasm average intensity. As to the method: HepG2 cells (Order No. HB-8065, Lot. 58483209, ATCC, Manassas, USA) were cultured in DMEM/F12 with L-Glutamine and 15 mM Hepes supplemented with 10% (v/v) FBS, 1% (v/v) penicillin (10 kU/ml)/streptomycin (10 mg/ml) solution, 0.1% (v/v) gentamicin (50 mg/ml), and 1 mM sodium pyruvate at 37° C. and 5% CO2 in culture flasks. Depending on the experiment, an appropriate number of cells were seeded onto plates after detaching of the cells using trypsin and cells were cultured at 37° C. and 5% CO2 for 24 h prior to treatment. All experiments were performed three times with cells of passages 4-20.
Cells were seeded onto black Poly-D-Lysin coated 96-well-plates (BD Biocoat, Franklin Lakes, USA) (0.02×10^6 cells/well) and left 24 h for adherence and then treated with test compounds at a maximum concentration of 1 mM which is recommended by the ICH S2(R1) guideline (EMA, 2011). For each compound, nine concentrations were tested with 2-fold serial dilutions. DMSO 1% (v/v) served as vehicle control for the experiments. The treatment procedure was different for direct-genotoxic and pro-genotoxic compounds. The treatment for direct genotoxic compounds was ongoing and was repeated daily over 48 h. Pro-genotoxic compounds were incubated for 6 h together with metabolic activation system (to limit the cytotoxic effect of the S9-mixture). After this period, cells were washed with cell media followed by 18-repeated daily over 48 h. The metabolic activation system used consisted of the following components and concentrations: 8 mM MgCl2, 32.8 mM KCl, 12 mM NADPH, 124 mM phosphate buffer and 2500 pmol/ml cytochrome P450 (CYP) content in the pre-mixture corresponding to 2.4 mM MgCl2, 9.8 mM KCl, 3.6 mM NADPH, 37.2 mM phosphate buffer, and 750 pmol/ml CYP as final concentrations after dilution 1:3.33 with cell culture media.
After treatment, cells were rinsed with PBS (Gibco Invitrogen, Karlsruhe, Germany), and then stained with 10 μM CellTracker Green 5-Chloromethylfluorescein Diacetate (CMFDA) (Invitrogen, Karlsruhe, Germany) in cell culture media for 30 min. CMFDA is per se non-fluorescent and is hydrolyzed by esterase in viable cells to a fluorescent-dye. The reaction with thiol groups leads to a cell-impermeable fluorescent-dye-adduct. The esterase activity can be used as an indicator for viability of cells (Papadopoulos et al., 1994, J Immunol Methods 177, 101-11). Afterwards, cells were washed with PBS and fixed with 3.7% Formaldehyde (Sigma-Aldrich, Taufkirchen, Germany) in PBS for 20 min. After that, cells were washed with PBS and blocked and permeabilized with 2% donkey serum (Millipore, Schwalbach, Germany) and 0.25% Triton X-100 (Sigma-Aldrich, Taufkirchen, Germany) in PBS for 30 min. Primary antibodies were diluted in Blocking/Permeabilization solution to final concentrations of 4 μg/ml anti-p-Chk1 (Ser345) goat polyclonal antibody IgG (santa cruz, Santa Cruz, USA), 4 μg/ml anti-p-ATM (Ser1981) mouse monoclonal antibody IgG1K (Millipore, Schwalbach, Germany) and added to the cells. After incubation for 16-18 h, cells were washed with 0.05% Tween 20 (Calbiochem, Darmstadt, Germany) in PBS, and the secondary antibody/16 μM Hoechst staining solution Blocking/Permeabilization solution was added. Secondary antibodies were diluted 1:400 (Alexa Fluor 555 donkey anti-goat, Alexa Fluor 647 donkey anti-mouse, Invitrogen, Karlsruhe, Germany). After an incubation of 1 h, followed by two additional washing steps with 0.05% Tween 20, cells were washed with PBS and finally PBS was added and cells were measured.
Image acquisition was performed on the ArrayScan VTI HCS Reader (Cellomics, Pittsburgh, USA) using a 20× objective. To detect enough cells, 50 images starting at the middle of each well were gathered.
• Channel 1: selected cell count per valid field • Channel 2: CMFDA cytoplasm average intensity • Channel 3: p-Chk1 (Ser345) nucleus average intensity • Channel 4: p-ATM (Ser1981) nucleus average intensity

[1] abbreviates: HepG2 cells, 48 h, CMFDA cytoplasm average intensity, with rat liver S9 (+S9).
Setting [2] is: HepG2 cells, 48 h, CMFDA cytoplasm average intensity, without metabolic activation (−S9).
[3] abbreviates: HepG2 cells, 48 h, selected cell count per valid field, with rat liver S9 (+S9).
[4] abbreviates: HepG2 cells, 48 h, selected cell count per valid field, without metabolic activation (−S9).

Turning to `CCCCC(CC)COC(=O)c1ccccc1C(=O)OCC(CC)CCCC` (stereo not drawn) [Di-(2-ethylhexyl)phthalate], where the note is “human”, the “CMFDA +S9 highest conc. <50% cytotox. over control” value amounted to 1000 µM, the “CMFDA −S9 highest conc. <50% cytotox. over control” value stood at 1000 µM, the “SCC +S9 highest conc. <50% cytotox. over control” value is 1000 µM and the “SCC −S9 highest conc. <50% cytotox. over control” value came out at 1000 µM.
As to `Cc1noc(NS(=O)(=O)c2ccc(N)cc2)c1C` [Sulfisoxazole], under “human, 48 h”, the “CMFDA +S9 highest conc. <50% cytotox. over control” value came to 1000 µM, the “CMFDA −S9 highest conc. <50% cytotox. over control” value is 1000 µM, the “SCC +S9 highest conc. <50% cytotox. over control” value was found to be 1000 µM and the “SCC −S9 highest conc. <50% cytotox. over control” value is 1000 µM.
Consider `COc1cc([C@@H]2c3cc4c(cc3[C@@H](O[C@@H]3O[C@@H]5CO[C@@H](C)O[C@H]5[C@H](O)[C@H]3O)[C@H]3COC(=O)[C@H]23)OCO4)cc(OC)c1O` [Etoposide], for which, under “human, 48 h”, the “CMFDA +S9 highest conc. <50% cytotox. over control” value was found to be 1000 µM, the “CMFDA −S9 highest conc. <50% cytotox. over control” value stood at 1000 µM and the “SCC +S9 highest conc. <50% cytotox. over control” value turned out to be 1000 µM.
As to `COS(C)(=O)=O` [Methylmethane sulfonate], where the note is “human, 48 h”, the “CMFDA +S9 highest conc. <50% cytotox. over control” value amounted to 250 µM, the “CMFDA −S9 highest conc. <50% cytotox. over control” value stood at 500 µM, the “SCC +S9 highest conc. <50% cytotox. over control” value was 500 µM and the “SCC −S9 highest conc. <50% cytotox. over control” value stood at 250 µM.
Consider `CCCC(O)C(CC)CO` (stereo not drawn) [2-Ethyl-1,3-hexanediol], for which, under “human, 48 h”, the “CMFDA +S9 highest conc. <50% cytotox. over control” value is 1000 µM, the “CMFDA −S9 highest conc. <50% cytotox. over control” value turned out to be 1000 µM, the “SCC +S9 highest conc. <50% cytotox. over control” value was 1000 µM and the “SCC −S9 highest conc. <50% cytotox. over control” value amounted to 1000 µM.
With `CC(=O)O[C@H]1C(=O)[C@@]2(C)[C@H]([C@H](OC(=O)c3ccccc3)[C@]3(O)C[C@H](OC(=O)[C@H](O)[C@@H](NC(=O)c4ccccc4)c4ccccc4)C(C)=C1C3(C)C)[C@]1(OC(C)=O)CO[C@@H]1C[C@@H]2O` [Taxol], for the setting “human, 48 h”, the “CMFDA +S9 highest conc. <50% cytotox. over control” value was determined as 1000 µM, the “CMFDA −S9 highest conc. <50% cytotox. over control” value was 1000 µM, the “SCC +S9 highest conc. <50% cytotox. over control” value amounted to 500 µM and the “SCC −S9 highest conc. <50% cytotox. over control” value was determined as 1000 µM.
In the case of `O=C1CCCCC1` [Cyclohexanone], for the setting “human, 48 h”, the “CMFDA +S9 highest conc. <50% cytotox. over control” value came out at 1000 µM, the “CMFDA −S9 highest conc. <50% cytotox. over control” value was 1000 µM, the “SCC +S9 highest conc. <50% cytotox. over control” value stood at 1000 µM and the “SCC −S9 highest conc. <50% cytotox. over control” value is 1000 µM.
With `O=C1OC(=O)c2ccccc21` [Phthalic anhydride], the “CMFDA +S9 highest conc. <50% cytotox. over control” value under setting [1] is 1000 µM. Besides, the “CMFDA −S9 highest conc. <50% cytotox. over control” value under setting [2] came to 1000 µM. Under setting [3], the “SCC +S9 highest conc. <50% cytotox. over control” value stood at 1000 µM. For the same compound, the “SCC −S9 highest conc. <50% cytotox. over control” value under setting [4] amounted to 1000 µM.
As for `Nc1nc[nH]n1` [Amitrole], under “human, 48 h”, the “CMFDA +S9 highest conc. <50% cytotox. over control” value came to 1000 µM, the “CMFDA −S9 highest conc. <50% cytotox. over control” value worked out at 1000 µM, the “SCC +S9 highest conc. <50% cytotox. over control” value turned out to be 1000 µM and the “SCC −S9 highest conc. <50% cytotox. over control” value is 1000 µM.
As for `O=P1(N(CCCl)CCCl)NCCCO1` (stereo not drawn) [Cyclophosphamide], where the note is “human”, the “CMFDA +S9 highest conc. <50% cytotox. over control” value worked out at 62.5 µM, the “CMFDA −S9 highest conc. <50% cytotox. over control” value came out at 1000 µM, the “SCC +S9 highest conc. <50% cytotox. over control” value was found to be 1000 µM and the “SCC −S9 highest conc. <50% cytotox. over control” value is 1000 µM.
Regarding Sodium xylene sulfonate, the “CMFDA +S9 highest conc. <50% cytotox. over control” value under setting [1] came to 1000 µM. Moreover, under setting [2], the “CMFDA −S9 highest conc. <50% cytotox. over control” value was found to be 1000 µM. Also, the “SCC +S9 highest conc. <50% cytotox. over control” value under setting [3] amounted to 1000 µM. Further, under setting [4], the “SCC −S9 highest conc. <50% cytotox. over control” value was 1000 µM.
`O=[As]O` [Sodium arsenite]: the “CMFDA +S9 highest conc. <50% cytotox. over control” value under setting [1] was found to be 125 µM. Under setting [2], the “CMFDA −S9 highest conc. <50% cytotox. over control” value was found to be 62.5 µM. For the same compound, under setting [3], the “SCC +S9 highest conc. <50% cytotox. over control” value was 125 µM. The “SCC −S9 highest conc. <50% cytotox. over control” value under setting [4] turned out to be 7.81 µM.
Consider `CC(C)[C@@H]1CC[C@@H](C)C[C@H]1O` [D,L-menthol], for which the “CMFDA +S9 highest conc. <50% cytotox. over control” value was 1000 µM, the “CMFDA −S9 highest conc. <50% cytotox. over control” value came out at 1000 µM, the “SCC +S9 highest conc. <50% cytotox. over control” value stood at 1000 µM and the “SCC −S9 highest conc. <50% cytotox. over control” value was 1000 µM.
As to `c1ccc2c(c1)cc1ccc3cccc4ccc2c1c34` [Benzo[a]pyrene], where the note is “human”, the “CMFDA +S9 highest conc. <50% cytotox. over control” value was 125 µM, the “CMFDA −S9 highest conc. <50% cytotox. over control” value is 125 µM, the “SCC +S9 highest conc. <50% cytotox. over control” value came to 125 µM and the “SCC −S9 highest conc. <50% cytotox. over control” value came to 3.91 µM.
Regarding Aflatoxin B1, the “CMFDA +S9 highest conc. <50% cytotox. over control” value worked out at 500 µM, the “CMFDA −S9 highest conc. <50% cytotox. over control” value was 500 µM, the “SCC +S9 highest conc. <50% cytotox. over control” value was 500 µM and the “SCC −S9 highest conc. <50% cytotox. over control” value turned out to be 31.25 µM.
In the case of `OCc1ccccc1` [Benzyl alcohol], under “human, 48 h”, the “CMFDA +S9 highest conc. <50% cytotox. over control” value stood at 1000 µM, the “CMFDA −S9 highest conc. <50% cytotox. over control” value is 1000 µM, the “SCC +S9 highest conc. <50% cytotox. over control” value worked out at 1000 µM and the “SCC −S9 highest conc. <50% cytotox. over control” value amounted to 1000 µM.
`CC(=O)[C@H]1CC[C@H]2[C@@H]3CCC4=CC(=O)CC[C@]4(C)[C@H]3CC[C@]12C` [Progesterone]: where the note is “human, 48 h”, the “CMFDA +S9 highest conc. <50% cytotox. over control” value amounted to 250 µM, the “CMFDA −S9 highest conc. <50% cytotox. over control” value is 62.5 µM, the “SCC +S9 highest conc. <50% cytotox. over control” value is 500 µM and the “SCC −S9 highest conc. <50% cytotox. over control” value is 125 µM.
Regarding `O=C(N[C@H](CO)[C@H](O)c1ccc([N+](=O)[O-])cc1)C(Cl)Cl` [Chloramphenicol], under “human, 48 h”, the “CMFDA +S9 highest conc. <50% cytotox. over control” value was 1000 µM, the “CMFDA −S9 highest conc. <50% cytotox. over control” value worked out at 1000 µM, the “SCC +S9 highest conc. <50% cytotox. over control” value came out at 1000 µM and the “SCC −S9 highest conc. <50% cytotox. over control” value came out at 1000 µM.
Consider `Oc1ccc(O)cc1` [Hydroquinone], for which, for the setting “human, 48 h”, the “CMFDA +S9 highest conc. <50% cytotox. over control” value was 1000 µM, the “CMFDA −S9 highest conc. <50% cytotox. over control” value stood at 250 µM, the “SCC +S9 highest conc. <50% cytotox. over control” value came to 1000 µM and the “SCC −S9 highest conc. <50% cytotox. over control” value was 250 µM.
`NC(=S)N(C1CCCCC1)C1CCCCC1` [N,N-dicyclohexyl thiourea]: where the note is “human, 48 h”, the “CMFDA +S9 highest conc. <50% cytotox. over control” value was 500 µM, the “CMFDA −S9 highest conc. <50% cytotox. over control” value was 1000 µM, the “SCC +S9 highest conc. <50% cytotox. over control” value is 1000 µM and the “SCC −S9 highest conc. <50% cytotox. over control” value was 500 µM.
As for `CN(C)C(=O)Nc1cccc(C(F)(F)F)c1` [Fluometron], where the note is “human, 48 h”, the “CMFDA +S9 highest conc. <50% cytotox. over control” value was 1000 µM, the “CMFDA −S9 highest conc. <50% cytotox. over control” value is 1000 µM, the “SCC +S9 highest conc. <50% cytotox. over control” value turned out to be 1000 µM and the “SCC −S9 highest conc. <50% cytotox. over control” value is 500 µM.
For the compound `COc1cc(/C=C/C(=O)CC(=O)/C=C/c2ccc(O)c(OC)c2)ccc1O` [Curcumin], where the note is “human, 48 h”, the “CMFDA +S9 highest conc. <50% cytotox. over control” value was determined as 125 µM, the “CMFDA −S9 highest conc. <50% cytotox. over control” value stood at 31.25 µM, the “SCC +S9 highest conc. <50% cytotox. over control” value worked out at 125 µM and the “SCC −S9 highest conc. <50% cytotox. over control” value was determined as 31.25 µM.
